Active and inactive are the calls of the source. The calls are words filed in the database; no cut-off is given here.
Columns and labels:
[1] = Induction of fetal hemoglobin in human bone marrow derived CD34+ cells incubated for 5 days by FITC staining based flow cytometry analysis; assay type: functional, tissue-based; conditions: cd34-positive (myeloid/lymphoid) cell
[2] = Induction of fetal hemoglobin in human bone marrow derived CD34+ cells assessed as maximum efficacy incubated for 5 days by FITC staining based flow cytometry analysis relative to decitabine; assay type: functional; conditions: CD34-positive (myeloid/lymphoid) cell, 120 h, time 5 day
[3] = Metabolic stability in human liver microsomes assessed as parent compound remaining at 0.5 mg/mL incubated for 0.5 hrs; assay type: ADME, Microsome; conditions: read-out: Stabilty
[4] = Metabolic stability in monkey liver microsomes assessed as parent compound remaining at 0.5 mg/mL incubated for 0.5 hrs; assay type: ADME, Macaca mulatta, Microsome; conditions: rhesus monkey, read-out: Stabilty
[5] = Solubility of the compound in pH 1.2 JP1 fluid; assay type: physicochemical
[6] = Solubility of the compound in pH 6.8 JP2 fluid; assay type: physicochemical
[7] = Protein binding in monkey plasma; assay type: ADME, cell-free, Macaca mulatta; conditions: rhesus monkey, read-out: PPB (converted)
[8] = Cytotoxicity against human bone marrow derived CD34+ cells assessed as effect on cell viability at 0.47 to 15 uM by propidium iodide staining based assay; conditions: cd34-positive (myeloid/lymphoid) cell, dose 0.47-15 µM
[9] = target: T1, CYP1A2 (Homo sapiens, UniProt P05177); test: Inhibition of CYP1A2 (unknown origin) at 10 uM relative to control; assay type: ADME
T1 sequence (P05177 whole entry): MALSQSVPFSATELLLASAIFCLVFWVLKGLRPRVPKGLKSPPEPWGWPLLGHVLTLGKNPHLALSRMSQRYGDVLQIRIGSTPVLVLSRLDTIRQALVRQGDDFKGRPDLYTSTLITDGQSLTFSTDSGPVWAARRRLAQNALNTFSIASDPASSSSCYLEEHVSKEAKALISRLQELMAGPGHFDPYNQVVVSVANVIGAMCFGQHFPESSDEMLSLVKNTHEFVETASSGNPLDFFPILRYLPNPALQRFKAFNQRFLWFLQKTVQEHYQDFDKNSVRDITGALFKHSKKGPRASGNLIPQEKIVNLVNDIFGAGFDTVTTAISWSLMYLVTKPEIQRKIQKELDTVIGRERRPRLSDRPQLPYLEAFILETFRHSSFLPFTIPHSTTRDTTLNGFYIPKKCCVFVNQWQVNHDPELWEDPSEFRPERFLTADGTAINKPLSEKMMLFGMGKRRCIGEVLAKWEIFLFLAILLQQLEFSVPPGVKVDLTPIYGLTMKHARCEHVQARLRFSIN

[10] = target: CYP2C9 (Homo sapiens, UniProt P11712); test: Inhibition of CYP2C9 (unknown origin) at 10 uM relative to control; assay type: ADME
Chain of CYP2C9 (P11712 whole entry): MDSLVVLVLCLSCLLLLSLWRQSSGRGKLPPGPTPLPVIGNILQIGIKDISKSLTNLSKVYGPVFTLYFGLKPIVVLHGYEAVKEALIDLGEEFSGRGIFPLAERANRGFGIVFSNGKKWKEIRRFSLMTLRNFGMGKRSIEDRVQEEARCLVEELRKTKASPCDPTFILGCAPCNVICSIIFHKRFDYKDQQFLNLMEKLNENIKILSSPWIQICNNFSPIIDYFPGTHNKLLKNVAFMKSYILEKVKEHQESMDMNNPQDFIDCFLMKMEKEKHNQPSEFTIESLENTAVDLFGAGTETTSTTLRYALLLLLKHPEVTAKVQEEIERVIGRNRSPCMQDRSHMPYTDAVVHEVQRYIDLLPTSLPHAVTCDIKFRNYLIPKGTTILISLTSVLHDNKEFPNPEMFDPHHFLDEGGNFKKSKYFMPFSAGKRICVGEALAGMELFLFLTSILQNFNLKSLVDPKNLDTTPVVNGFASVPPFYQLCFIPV

[11] = target: CYP2D6 (Homo sapiens, UniProt P10635); test: Inhibition of CYP2D6 (unknown origin) at 10 uM relative to control; assay type: ADME
Chain of CYP2D6 (P10635 whole entry): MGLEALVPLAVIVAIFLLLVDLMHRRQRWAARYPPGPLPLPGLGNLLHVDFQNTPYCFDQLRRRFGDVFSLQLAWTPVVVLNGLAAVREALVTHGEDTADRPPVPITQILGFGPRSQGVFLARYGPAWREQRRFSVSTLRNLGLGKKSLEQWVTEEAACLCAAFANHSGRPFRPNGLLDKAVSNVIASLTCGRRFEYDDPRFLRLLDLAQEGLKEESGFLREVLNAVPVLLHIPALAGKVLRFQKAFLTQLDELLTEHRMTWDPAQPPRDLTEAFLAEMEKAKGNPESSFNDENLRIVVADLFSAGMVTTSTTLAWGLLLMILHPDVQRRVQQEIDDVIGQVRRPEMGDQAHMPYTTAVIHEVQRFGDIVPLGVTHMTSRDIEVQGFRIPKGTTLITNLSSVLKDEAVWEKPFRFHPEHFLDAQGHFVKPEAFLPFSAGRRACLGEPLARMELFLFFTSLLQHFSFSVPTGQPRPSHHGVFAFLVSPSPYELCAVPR

[12] = target: T2, CYP3A4 (Homo sapiens, UniProt P08684); test: Inhibition of CYP3A4 (unknown origin) at 10 uM relative to control; assay type: ADME
T2 sequence (P08684 whole entry): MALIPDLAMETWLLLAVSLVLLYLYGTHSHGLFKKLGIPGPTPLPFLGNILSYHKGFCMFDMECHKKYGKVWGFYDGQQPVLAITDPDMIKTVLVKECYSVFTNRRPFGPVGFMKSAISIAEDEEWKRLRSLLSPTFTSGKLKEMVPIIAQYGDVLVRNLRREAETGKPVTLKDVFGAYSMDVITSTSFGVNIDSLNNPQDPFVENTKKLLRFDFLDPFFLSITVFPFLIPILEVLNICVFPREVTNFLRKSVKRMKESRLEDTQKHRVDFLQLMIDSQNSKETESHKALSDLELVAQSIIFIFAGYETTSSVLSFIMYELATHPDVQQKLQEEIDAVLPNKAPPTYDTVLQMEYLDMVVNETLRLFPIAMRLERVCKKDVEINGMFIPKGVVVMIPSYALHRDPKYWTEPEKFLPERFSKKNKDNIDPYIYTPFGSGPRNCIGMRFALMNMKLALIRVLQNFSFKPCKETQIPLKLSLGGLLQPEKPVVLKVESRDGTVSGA

[13] = target: T2, CYP3A4; test: Mechanism based inhibition of CYP3A4 in human liver microsomes assessed as remaining percentage at 100 uM in presence of substrate incubated for 30 mins relative to control; assay type: ADME; conditions: read-out: Activity
[14] = Cmax in monkey at 1 mg/kg, po; assay type: ADME, organism-based, Macaca mulatta; design: route oral, dose 1 mg/kg; conditions: rhesus monkey, in vivo
[15] = AUClast in monkey at 1 mg/kg, po; assay type: ADME, organism-based, Macaca mulatta; design: route oral, time 0 - last, dose 1 mg/kg; conditions: rhesus monkey, in vivo
[16] = Half life in monkey at 1 mg/kg, po; assay type: ADME, organism-based, Macaca mulatta; conditions: rhesus monkey, in vivo
[17] = Genotoxicity in Salmonella typhimurium by Ames test; assay type: toxicity; conditions: salmonella enterica subsp. enterica serovar typhimurium
[18] = target: hERG (KCNH2) (Homo sapiens, UniProt Q12809); test: Inhibition of human ERG at 10 uM relative to control
Chain of hERG (KCNH2) (Q12809 whole entry): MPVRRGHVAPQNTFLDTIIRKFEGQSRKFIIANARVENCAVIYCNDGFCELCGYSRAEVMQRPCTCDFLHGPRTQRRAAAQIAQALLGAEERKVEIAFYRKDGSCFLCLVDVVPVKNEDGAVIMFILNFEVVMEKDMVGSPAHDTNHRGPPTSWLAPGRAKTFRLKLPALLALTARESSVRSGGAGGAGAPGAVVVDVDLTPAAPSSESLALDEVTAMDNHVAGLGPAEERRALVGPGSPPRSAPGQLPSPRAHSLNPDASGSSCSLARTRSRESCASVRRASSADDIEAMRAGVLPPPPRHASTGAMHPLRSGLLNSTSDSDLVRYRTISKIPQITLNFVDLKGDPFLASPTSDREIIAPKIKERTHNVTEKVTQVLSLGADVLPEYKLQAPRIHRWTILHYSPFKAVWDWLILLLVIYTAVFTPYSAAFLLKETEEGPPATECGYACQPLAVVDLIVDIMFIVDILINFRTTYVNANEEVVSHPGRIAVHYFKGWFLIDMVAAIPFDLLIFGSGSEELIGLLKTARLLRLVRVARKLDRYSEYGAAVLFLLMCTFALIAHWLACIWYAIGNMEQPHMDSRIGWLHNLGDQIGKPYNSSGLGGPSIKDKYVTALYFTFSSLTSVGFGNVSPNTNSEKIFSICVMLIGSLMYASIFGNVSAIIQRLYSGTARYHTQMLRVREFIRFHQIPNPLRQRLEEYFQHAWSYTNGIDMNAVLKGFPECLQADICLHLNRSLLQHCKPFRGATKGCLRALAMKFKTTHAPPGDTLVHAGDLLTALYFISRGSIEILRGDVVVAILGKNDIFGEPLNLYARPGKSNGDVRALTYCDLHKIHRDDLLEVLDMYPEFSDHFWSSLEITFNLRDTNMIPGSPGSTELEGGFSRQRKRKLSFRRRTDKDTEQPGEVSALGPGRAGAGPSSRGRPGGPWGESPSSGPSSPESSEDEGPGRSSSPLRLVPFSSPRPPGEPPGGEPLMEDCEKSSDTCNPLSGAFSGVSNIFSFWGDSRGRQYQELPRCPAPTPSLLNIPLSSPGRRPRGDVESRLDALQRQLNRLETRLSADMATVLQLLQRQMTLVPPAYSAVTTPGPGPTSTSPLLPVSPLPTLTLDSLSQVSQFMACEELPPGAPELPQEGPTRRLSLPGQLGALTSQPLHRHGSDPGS

[19] = Cmax in monkey at 10 mg/kg, po; assay type: ADME, organism-based, Macaca mulatta; design: route oral, dose 10 mg/kg; conditions: rhesus monkey, in vivo
[20] = AUClast in monkey at 10 mg/kg, po; assay type: ADME, organism-based, Macaca mulatta; design: route oral, time 0 - last, dose 10 mg/kg; conditions: rhesus monkey, in vivo
[21] = Half life in monkey at 10 mg/kg, po; assay type: ADME, organism-based, Macaca mulatta; conditions: rhesus monkey, in vivo
[22] = Cytotoxicity against human bone marrow derived CD34+ cells assessed as effect on cell viability at 15 uM by propidium iodide staining based assay relative to control; design: species or system CD34-positive (myeloid/lymphoid) cell; conditions: read-out: Activity
[23] = system: Macaca fascicularis; test: In vivo induction of fetal hemoglobin in cynomolgus monkey assessed as gamma-globin gene expression at 30 mg/kg, po qd administered for 6 consecutive days by RT-qPCR analysis; assay type: functional, organism-based; conditions: time 6.0 day
[24] = system: Macaca fascicularis; test: In vivo induction of fetal hemoglobin in po dosed cynomolgus monkey assessed as gamma-globin gene expression administered twice for 6 consecutive days by RT-qPCR analysis; assay type: functional, organism-based; conditions: dose mg/kg 15-30, time 6.0 day
[25] = Toxicity in cynomolgus monkey assessed as transient hypoglycemia at 30 mg/kg, po qd administered for 6 consecutive days; assay type: organism-based, Macaca fascicularis; conditions: in vivo, 144 h, time 6 day

Structure (SMILES)	EC50 [1]	remaining at 0.5 h [3]	remaining at 0.5 h [4]	Emax [2]	also measured
CC(=O)N1CC(CNC(=O)c2cc(-c3ccccc3)no2)C1	> 5 µM	50%	17%		
CS(=O)(=O)N1CC2(CC(NC(=O)c3cc(-c4ccccc4)no3)C2)C1	3.9 µM	76%	87%	45%	
CN(C)C(=O)CCN1CCc2[nH]c(-c3ccc(F)cc3)cc2C1=O	> 5 µM	99%	39%		
CCN1CC2(CC(NC(=O)c3cc(-c4ccccc4)no3)C2)C1	5 µM	100%	87%	50%	
CC(C)C(=O)N1CC2(CC(NC(=O)c3cc(-c4ccccc4)no3)C2)C1	> 5 µM	79%	55%	27%	
CCC(=O)N1CC2(CC(NC(=O)c3cc(-c4ccccc4)no3)C2)C1	> 5 µM	68%	69%	47%	
CN(C)C(=O)CCNC(=O)c1cc(-c2ccccc2)no1	1.7 µM	81%	4.7%	51%	
CN(C)C(=O)CNC(=O)c1cc(-c2ccc(F)cc2)no1	6.1 µM	84%	11%	41%	
CN(C)C(=O)CCN1CCn2cc(-c3ccc(F)cc3)cc2C1=O	> 5 µM	94%	41%		
CN(C)C(=O)CCNC(=O)C1CSC(c2ccc(F)cc2)N1 (mixture of isomers)	> 5 µM	90%	32%		
CN(C)C(=O)CCNC(=O)c1csc(-c2ccc(F)cc2)n1	> 5 µM	53%	0.1%		
CN(C)C(=O)CCNC(=O)c1cc(-c2cccc(F)c2)no1	> 5 µM	> 100%	55%		

Continued, in another order:

EC50 [1]	remaining at 0.5 h [3]	remaining at 0.5 h [4]	Structure (SMILES)	Emax [2]	also measured
4.1 µM			CN(C)C(=O)CCCNC(=O)c1cc(-c2ccc(F)cc2)no1	55%	
> 5 µM	> 100%	34%	CN(C)C(=O)CCNC(=O)c1cc(C2CCCCC2)no1		
> 5 µM	61%	52%	CC(CNC(=O)c1cc(-c2ccc(F)cc2)no1)C(=O)N(C)C (racemic)		
> 5 µM	> 100%	4%	CN(C)C(=O)CCNC(=O)c1cc(-c2ccccc2F)no1	37%	
> 5 µM	91%	35%	CC(CC(=O)N(C)C)NC(=O)c1cc(-c2ccc(F)cc2)no1 (racemic)		
2.9 µM	84%	79%	CC(=O)N1CC2(CC(NC(=O)c3cc(-c4ccc(F)cc4)no3)C2)C1	64%	solubility [5]: > 100 µg/mL; solubility [6]: > 100 µg/mL; fraction unbound [7]: 0.28; Activity [8]: Non-Toxic; inhibition at 10 µM [9]: 1%; inhibition at 10 µM [10]: < 0%; inhibition at 10 µM [11]: 1%; inhibition at 10 µM [12]: < 0%; activity at 0.5 h, 100 µM [13]: 98%; Cmax [14]: 460 ng/mL; AUC(0-t) [15]: 2350 ng·h/mL; half-life [16]: 5.9 h; Activity [17]: Non-Toxic
> 5 µM			CN(C)CCCNC(=O)c1cc(-c2ccc(F)cc2)no1		
> 5 µM	98%	36%	CN(C)C(=O)CCN(C)C(=O)c1cc(-c2ccc(F)cc2)no1		
> 5 µM	> 100%	42%	CN(C)C(=O)CCN1CCc2c(cc(-c3ccc(F)cc3)n2C)C1=O		
2.8 µM	87%	10%	CN(C)C(=O)CCNC(=O)c1cc(-c2ccc(F)cc2)no1	56%	solubility [5]: > 100 µg/mL; solubility [6]: > 100 µg/mL; fraction unbound [7]: 0.42; inhibition at 10 µM [9]: 6%; inhibition at 10 µM [10]: 6%; inhibition at 10 µM [11]: 5%; inhibition at 10 µM [12]: < 0%; activity at 0.5 h, 100 µM [13]: 97%; inhibition at 10 µM [18]: 7.1%; Cmax [19]: 1360 ng/mL; AUC(0-t) [20]: 4360 ng·h/mL; half-life [21]: 1 h; Activity [17]: Non-Toxic
2.8 µM	> 100%	64%	CC(=O)N1CC2(CC(NC(=O)c3cc(-c4ccccc4)no3)C2)C1	54%	solubility [5]: > 100 µg/mL; solubility [6]: > 100 µg/mL; fraction unbound [7]: 0.41; viability at 15 µM [22]: 20%; inhibition at 10 µM [9]: 3%; inhibition at 10 µM [10]: < 0%; inhibition at 10 µM [11]: 2%; inhibition at 10 µM [12]: < 0%; activity at 0.5 h, 100 µM [13]: 94%; inhibition at 10 µM [18]: 18%; Cmax [14]: 545 ng/mL; AUC(0-t) [15]: 4210 ng·h/mL; half-life [16]: 3.7 h; Activity [23]: Active; Activity [24]: Dose-dependent effect; Activity [25]: Toxic; Activity [17]: Non-Toxic

Source: ChEMBL document CHEMBL4699452, “Design, synthesis, and optimization of a series of 2-azaspiro[3.3]heptane derivatives as orally bioavailable fetal hemoglobin inducers” (Bioorg Med Chem Lett, 2020)
